Measurements as given in US12115250B2, “Use of nanoparticles for treating respiratory infections associated with cystic fibrosis” (EVOQ NANO, INC., priority 2019, dated 2024).

Columns and labels:
[1] = tested on: E. coli ATCC #51813; assay: Antibacterial efficacy test, Relative Light Unit (RLU) counts (ATP); format: cell-based
Method: The NIST nanoparticles are formed by a chemical reduction process that utilizes citrate as reducing and capping agent.
Relative Light Unit (RLU) counts were recorded at 12 hours and 24 hours post treatment. RLU measurements were carried out using a Hygiena SystemSURE Plus V.2 SN067503 RLU meter with Hygenia AquaSnap TOTAL ATP Water Test Cat #U143 Lot #153019. Culturing media was Hardy Diagnostics Buffered Peptone Water Lot #118272. Samples were prepared with the nanoparticle treatments and then diluted with the media to provide the tested concentrations. The test organism (Microbiologics, E. coli, KwikStik, ATCC #51813, Ref #0791 K, Lot #791-1-6) was incubated in fresh Buffered Peptone Water growth media for 24 hours prior to exposure to the nanoparticle treatments.

[2] = Efficacy test comparing Attostat Ag to tobramycin (colony reduction); format: cell-based; conditions: 4 μg/mL Attostat Ag vs 20 μg/mL tobramycin
Method: Efficacy tests similar to those of Examples 5 and 6 were performed to compare the efficacy of Attostat Ag to tobramycin. […]

Compound | RLU Counts at 12 Hours Post Exposure ([1]; 0.25 ppm (mg/L)) [RLU] | RLU Counts at 24 Hours Post Exposure ([1]; 0.25 ppm (mg/L)) [RLU] | RLU Counts at 12 Hours Post Exposure ([1]; 0.5 ppm (mg/L)) [RLU] | RLU Counts at 24 Hours Post Exposure ([1]; 0.5 ppm (mg/L)) [RLU] | RLU Counts at 12 Hours Post Exposure ([1]; 1.0 ppm (mg/L)) [RLU] | RLU Counts at 24 Hours Post Exposure ([1]; 1.0 ppm (mg/L)) [RLU] | colony reduction, comparison [2]
O=[N+]([O-])[O-].[Ag+] [AgNO3 Silver Nitrate, silver nitrate] | 80 | 25 | 75 | 46 | 84 | 30 | –
NC[C@H]1O[C@H](O[C@H]2[C@H](O)[C@@H](O[C@H]3O[C@H](CO)[C@@H](O)[C@H](N)[C@H]3O)[C@H](N)C[C@@H]2N)[C@H](N)C[C@@H]1O [tobramycin] | – | – | – | – | – | – | equal colony reduction
